± gives the standard deviation of the averaged measurements.
Legend:
Assay in all cases: level (log10 ratio to DMSO vehicle control); higher = higher biomarker level / cell amount than vehicle control
[1] = compound: C=C(C)C(=O)OCCC(F)(F)C(F)(F)C(F)(F)C(F)(F)C(F)(F)C(F)(F)F [6:2 Fluorotelomer methacrylate]; conditions: in DMSO
Method: (§1)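 BioMAP Diversity Plus panel of 12 human primary cell co-culture systems (3C, 4H, LPS, SAg, BT, BF4T, BE3C, CASM3C, HDF3CGF, KF3CT, MyoF, Mphg). Compounds were added 1 h before stimulation and left for 24 h (MyoF 48 h; BT 72 h for soluble read-outs or 6 d for IgG). Biomarkers were read by ELISA, cytotoxicity by SRB, PBMC viability and proliferation by Alamar Blue. Each well value was divided by the mean of 8 DMSO control wells on the same plate and log10 transformed; duplicate blinded samples were tested at 4 concentrations.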

[2] = compound: C=CC(=O)OCC(F)(F)C(F)(F)C(F)(F)COC(=O)C=C [1H,1H,5H,5H-Perfluoro-1,5-pentanediol diacrylate]; conditions: 6700 nM; in DMSO
Method: as §1

[3] = compound: COC(=O)C(F)(F)C(F)(F)OC(F)(C(F)(F)F)C(F)(F)OC(F)=C(F)F [Methyl perfluoro(3-(1-ethenyloxypropan-2-yloxy)propanoate)]; conditions: in DMSO
Method: as §1

[4] = compound: FC(F)(F)C(F)(F)C(F)(F)C(F)(F)C(F)(F)C(F)(F)C(F)(F)I [1-Iodopentadecafluoroheptane]; conditions: in DMSO
Method: as §1

[5] = compound: FC(F)(F)C(F)(F)C(F)(F)C(F)(F)C(F)(F)C(F)(F)CC1CO1 [3-(Perfluorohexyl)-1,2-epoxypropane]; conditions: in DMSO
Method: as §1

[6] = compound: FC(F)(F)C(F)(F)C(F)(F)CC1CO1 [1H,1H-Heptafluorobutyl epoxide]; conditions: in DMSO
Method: as §1

Heptafluorobutyl iodide = compound: FC(F)(F)C(F)(F)C(F)(F)CI [Heptafluorobutyl iodide]; conditions: in DMSO
Method: as §1

[7] = compound: FC(F)(F)C(F)(F)CNCC(F)(F)C(F)(F)F [Bis(1H,1H-perfluoropropyl)amine]; conditions: in DMSO
Method: as §1

Octafluoroadipamide = compound: NC(=O)C(F)(F)C(F)(F)C(F)(F)C(F)(F)C(N)=O [Octafluoroadipamide]; conditions: in DMSO
Method: as §1

Nonafluoropentanamide = compound: NC(=O)C(F)(F)C(F)(F)C(F)(F)C(F)(F)F [Nonafluoropentanamide]; conditions: in DMSO
Method: as §1

[8] = compound: NC(=O)C(F)(F)C(F)(F)C(F)(F)C(F)F; conditions: in DMSO
Method: as §1

[9] = compound: NS(=O)(=O)C(F)(F)C(F)(F)C(F)(F)C(F)(F)C(F)(F)C(F)(F)F [Perfluorohexanesulfonamide]; conditions: in DMSO
Method: as §1

[10] = compound: O=C(O)C(F)(F)C(F)(F)C(F)(F)C(F)(F)C(F)(F)C(F)(F)C(F)(F)C(F)(F)C(F)(F)C(F)F [11-H-Perfluoroundecanoic acid]; conditions: in DMSO
Method: as §1

[11] = compound: O=C(O)C=CC(F)(C(F)(F)F)C(F)(F)F [3-(Perfluoroisopropyl)-2-propenoic acid]; conditions: in DMSO
Method: as §1

[12] = compound: O=S(=O)(Cl)C(F)(F)C(F)(F)C(F)(F)C(F)(F)C(F)(F)C(F)(F)C(F)(F)C(F)(F)F [Perfluoro-1-octanesulfonyl chloride]; conditions: in DMSO
Method: as §1

[13] = compound: O=S(=O)(F)C(F)(F)C(F)(F)C(F)(F)C(F)(F)C(F)(F)C(F)(F)C(F)(F)C(F)(F)F [Perfluorooctanesulfonyl fluoride]; conditions: in DMSO
Method: as §1

[14] = compound: O=S(=O)(O)C(F)(F)C(F)(F)C(F)(F)C(F)(F)C(F)(F)C(F)(F)C(F)(F)C(F)(F)C(F)(F)C(F)(F)F [Sodium perfluorodecanesulfonate]; conditions: in DMSO
Method: as §1

[15] = compound: O=S(=O)(O)CCC(F)(F)C(F)(F)C(F)(F)C(F)(F)C(F)(F)C(F)(F)F [6:2 Fluorotelomer sulfonic acid]; conditions: in DMSO
Method: as §1

Hexafluoroamylene glycol = compound: OCC(F)(F)C(F)(F)C(F)(F)CO [Hexafluoroamylene glycol]; conditions: in DMSO
Method: as §1

SAg:CD38
level (log10) ([1]; 6700 nM): -0.0075 ± 0.011
level (log10) ([1]; 20000 nM): 0.015 ± 0.038
level (log10) ([1]; 60000 nM): 0.0005 ± 0.029
level (log10) [2]: -0.0655 ± 0.046
level (log10) ([3]; 6700 nM): -0.0175 ± 0.13
level (log10) ([3]; 20000 nM): 0.038 ± 0.082
level (log10) ([4]; 6700 nM): -0.0085 ± 0.029
level (log10) ([4]; 20000 nM): -0.005 ± 0.024
level (log10) ([5]; 6700 nM): 0.001 ± 0.014
level (log10) ([5]; 20000 nM): 0.0035 ± 0.00071
level (log10) ([5]; 60000 nM): -0.015 ± 0.0042
level (log10) ([6]; 6700 nM): 0.0025 ± 0.012
level (log10) ([6]; 20000 nM): -0.025 ± 0.0085
level (log10) ([6]; 60000 nM): -0.0125 ± 0.03
level (log10) (Heptafluorobutyl iodide; 6700 nM): -0.0205 ± 0.021
level (log10) (Heptafluorobutyl iodide; 20000 nM): -0.027 ± 0.016
level (log10) (Heptafluorobutyl iodide; 60000 nM): -0.017 ± 0.031
level (log10) ([7]; 6700 nM): 0.001 ± 0.017
level (log10) ([7]; 20000 nM): -0.008 ± 0.018
level (log10) ([7]; 60000 nM): 0.002 ± 0.014
level (log10) (Octafluoroadipamide; 6700 nM): 0.0005 ± 0.00071
level (log10) (Octafluoroadipamide; 20000 nM): 0.0005 ± 0.018
level (log10) (Octafluoroadipamide; 60000 nM): 0.0065 ± 0.0021
level (log10) (Nonafluoropentanamide; 6700 nM): -0.0345 ± 0.037
level (log10) (Nonafluoropentanamide; 20000 nM): -0.0265 ± 0.04
level (log10) (Nonafluoropentanamide; 60000 nM): -0.032 ± 0.028
level (log10) ([8]; 6700 nM): -0.034 ± 0.014
level (log10) ([8]; 20000 nM): -0.027 ± 0.02
level (log10) ([8]; 60000 nM): -0.0295 ± 0.0064
level (log10) ([9]; 6700 nM): 0.0495 ± 0.056
level (log10) ([9]; 20000 nM): 0.0225 ± 0.061
level (log10) ([9]; 60000 nM): -0.141 ± 0.12
level (log10) ([10]; 6700 nM): -0.0045 ± 0.023
level (log10) ([10]; 20000 nM): 0.004 ± 0.04
level (log10) ([11]; 6700 nM): -0.0125 ± 0.026
level (log10) ([11]; 20000 nM): 0.001 ± 0.0071
level (log10) ([11]; 60000 nM): -0.019 ± 0.0085
level (log10) ([12]; 6700 nM): -0.0105 ± 0.00071
level (log10) ([12]; 20000 nM): -0.018 ± 0.0014
level (log10) ([12]; 60000 nM): -0.058 ± 0.027
level (log10) ([13]; 6700 nM): -0.0015 ± 0.039
level (log10) ([13]; 20000 nM): 0.0035 ± 0.0092
level (log10) ([13]; 60000 nM): 0.0145 ± 0.005
level (log10) ([14]; 1500 nM): -0.018 ± 0.02
level (log10) ([14]; 4400 nM): -0.041 ± 0.03
level (log10) ([14]; 13000 nM): 0.005 ± 0.035
level (log10) ([14]; 40000 nM): -0.071 ± 0.028
level (log10) ([15]; 6700 nM): -0.0315 ± 0.012
level (log10) ([15]; 20000 nM): -0.022 ± 0.04
level (log10) ([15]; 60000 nM): -0.0505 ± 0.032
level (log10) (Hexafluoroamylene glycol; 6700 nM): -0.02 ± 0.034
level (log10) (Hexafluoroamylene glycol; 20000 nM): -0.03 ± 0.025
level (log10) (Hexafluoroamylene glycol; 60000 nM): -0.0275 ± 0.046

LPS:IL-1alpha
level (log10) ([1]; 6700 nM): -0.0225 ± 0.079
level (log10) ([1]; 20000 nM): -0.0355 ± 0.022
level (log10) ([1]; 60000 nM): 0.052 ± 0.0042
level (log10) [2]: -0.078 ± 0.038
level (log10) ([3]; 6700 nM): 0.0045 ± 0.022
level (log10) ([3]; 20000 nM): 0.0515 ± 0.011
level (log10) ([4]; 6700 nM): -0.0655 ± 0.03
level (log10) ([4]; 20000 nM): -0.0495 ± 0.047
level (log10) ([5]; 6700 nM): 0.003 ± 0.018
level (log10) ([5]; 20000 nM): 0.012 ± 0.041
level (log10) ([5]; 60000 nM): 0.028 ± 0.027
level (log10) ([6]; 6700 nM): -0.027 ± 0.023
level (log10) ([6]; 20000 nM): -0.0115 ± 0.023
level (log10) ([6]; 60000 nM): 0.0085 ± 0.022
level (log10) (Heptafluorobutyl iodide; 6700 nM): 0.019 ± 0.11
level (log10) (Heptafluorobutyl iodide; 20000 nM): 0.0205 ± 0.023
level (log10) (Heptafluorobutyl iodide; 60000 nM): 0.0485 ± 0.029
level (log10) ([7]; 6700 nM): 0.0065 ± 0.04
level (log10) ([7]; 20000 nM): -0.017 ± 0.027
level (log10) ([7]; 60000 nM): -0.0125 ± 0.011
level (log10) (Octafluoroadipamide; 6700 nM): 0.0005 ± 0.012
level (log10) (Octafluoroadipamide; 20000 nM): 0.02 ± 0.017
level (log10) (Octafluoroadipamide; 60000 nM): -0.0045 ± 0.00071
level (log10) (Nonafluoropentanamide; 6700 nM): -0.1 ± 0.011
level (log10) (Nonafluoropentanamide; 20000 nM): -0.102 ± 0.0099
level (log10) (Nonafluoropentanamide; 60000 nM): -0.0555 ± 0.0092
level (log10) ([8]; 6700 nM): 0.009 ± 0.011
level (log10) ([8]; 20000 nM): -0.0045 ± 0.015
level (log10) ([8]; 60000 nM): 0.0015 ± 0.06
level (log10) ([9]; 6700 nM): -0.0075 ± 0.053
level (log10) ([9]; 20000 nM): 0.032 ± 0.013
level (log10) ([9]; 60000 nM): 0.0185 ± 0.0078
level (log10) ([10]; 6700 nM): -0.022 ± 0.011
level (log10) ([10]; 20000 nM): 0.004 ± 0.031
level (log10) ([11]; 6700 nM): 0.025 ± 0.034
level (log10) ([11]; 20000 nM): 0.0195 ± 0.05
level (log10) ([11]; 60000 nM): 0.0605 ± 0.023
level (log10) ([12]; 6700 nM): 0.0255 ± 0.018
level (log10) ([12]; 20000 nM): -0.0115 ± 0.039
level (log10) ([12]; 60000 nM): -0.063 ± 0.12
level (log10) ([13]; 6700 nM): 0.0065 ± 0.015
level (log10) ([13]; 20000 nM): 0.024 ± 0.016
level (log10) ([13]; 60000 nM): 0.0105 ± 0.012
level (log10) ([14]; 1500 nM): 0.0145 ± 0.026
level (log10) ([14]; 4400 nM): -0.0335 ± 0.032
level (log10) ([14]; 13000 nM): -0.004 ± 0.041
level (log10) ([14]; 40000 nM): -0.178 ± 0.1
level (log10) ([15]; 6700 nM): 0.007 ± 0.011
level (log10) ([15]; 20000 nM): 0.0225 ± 0.023
level (log10) ([15]; 60000 nM): 0.037 ± 0.05
level (log10) (Hexafluoroamylene glycol; 6700 nM): 0.047 ± 0.035
level (log10) (Hexafluoroamylene glycol; 20000 nM): -0.0045 ± 0.0035
level (log10) (Hexafluoroamylene glycol; 60000 nM): 0.03 ± 0.048

From the supplement of paper PMC10331698
